In assay [1] the target is T1, TGF-beta receptor type-1 (Homo sapiens, UniProt P36897).
T1 sequence (P36897 whole entry): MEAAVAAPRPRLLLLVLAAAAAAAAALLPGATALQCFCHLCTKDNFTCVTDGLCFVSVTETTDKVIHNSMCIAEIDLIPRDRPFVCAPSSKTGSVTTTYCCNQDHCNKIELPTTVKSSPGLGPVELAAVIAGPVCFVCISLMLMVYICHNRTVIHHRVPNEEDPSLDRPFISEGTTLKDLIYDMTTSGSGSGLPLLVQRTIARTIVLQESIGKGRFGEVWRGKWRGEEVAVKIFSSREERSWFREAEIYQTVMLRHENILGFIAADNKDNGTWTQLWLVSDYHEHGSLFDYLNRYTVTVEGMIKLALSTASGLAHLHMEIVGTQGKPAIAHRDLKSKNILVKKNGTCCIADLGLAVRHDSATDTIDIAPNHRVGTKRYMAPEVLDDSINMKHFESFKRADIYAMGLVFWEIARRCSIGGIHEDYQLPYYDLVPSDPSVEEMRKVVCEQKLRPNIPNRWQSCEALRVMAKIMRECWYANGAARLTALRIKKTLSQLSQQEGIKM
Put plainly: Inhibition of recombinant human TGFbeta R1 expressed in Sf9 cells.

The target in another assay is TGF-beta receptor type-2 (Homo sapiens, UniProt P37173). Put plainly: Inhibition of recombinant human TGFbeta R2 expressed in Sf9 cells.
Sequence of TGF-beta receptor type-2 (P37173 whole entry): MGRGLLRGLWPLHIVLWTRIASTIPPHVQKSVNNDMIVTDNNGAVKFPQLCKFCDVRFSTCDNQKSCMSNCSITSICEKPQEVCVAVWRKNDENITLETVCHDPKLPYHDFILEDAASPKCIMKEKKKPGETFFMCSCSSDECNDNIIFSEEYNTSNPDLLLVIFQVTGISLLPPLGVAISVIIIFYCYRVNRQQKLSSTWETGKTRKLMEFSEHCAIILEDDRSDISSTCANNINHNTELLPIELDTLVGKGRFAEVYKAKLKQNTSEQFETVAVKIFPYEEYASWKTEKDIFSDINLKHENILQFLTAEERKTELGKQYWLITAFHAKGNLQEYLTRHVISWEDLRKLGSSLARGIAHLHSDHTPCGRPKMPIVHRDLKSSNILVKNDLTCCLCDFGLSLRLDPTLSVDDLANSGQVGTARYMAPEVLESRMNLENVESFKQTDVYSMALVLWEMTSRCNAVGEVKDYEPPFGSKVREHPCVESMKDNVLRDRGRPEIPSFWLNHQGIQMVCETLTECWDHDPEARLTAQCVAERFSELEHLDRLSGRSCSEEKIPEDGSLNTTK
A short description of assay [2]: Inhibitory activity against TGF-beta-stimulated proliferation in NIH3T3 cells. The settings on record: Mus musculus. The format is functional, cell-based.
Assay [3] concerns the target Mitogen-activated protein kinase kinase kinase 20 (Homo sapiens, UniProt Q9NYL2). Put plainly: Inhibition of MLK7.
The target in assay [4] is T1, TGF-beta receptor type-1. Kind of assay: Inhibition of TGFbeta R1 induced transcriptional activation of p3TP-Lux in mink Mv1Lu lung cells. The format is functional, cell-based, Mustela.
In another assay the target is Cytochrome P450 2D6 (Homo sapiens, UniProt P10635). Kind of assay: Inhibition of cytochrome P450 2D6. The format is ADME.
Sequence of Cytochrome P450 2D6 (P10635 whole entry): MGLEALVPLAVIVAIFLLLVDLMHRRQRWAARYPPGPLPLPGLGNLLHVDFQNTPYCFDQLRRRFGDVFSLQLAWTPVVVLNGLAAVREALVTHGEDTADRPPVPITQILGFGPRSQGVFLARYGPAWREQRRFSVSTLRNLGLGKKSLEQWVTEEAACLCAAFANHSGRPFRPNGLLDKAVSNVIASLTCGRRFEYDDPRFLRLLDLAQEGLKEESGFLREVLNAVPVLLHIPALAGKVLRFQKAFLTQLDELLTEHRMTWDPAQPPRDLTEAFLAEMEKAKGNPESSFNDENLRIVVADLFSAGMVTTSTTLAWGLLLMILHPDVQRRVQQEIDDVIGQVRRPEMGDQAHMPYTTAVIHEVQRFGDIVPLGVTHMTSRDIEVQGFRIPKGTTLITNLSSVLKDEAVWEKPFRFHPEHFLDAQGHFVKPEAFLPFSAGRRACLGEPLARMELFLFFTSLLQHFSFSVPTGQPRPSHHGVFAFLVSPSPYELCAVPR

Structures are written as SMILES.

Sequence of Mitogen-activated protein kinase kinase kinase 20 (Q9NYL2 whole entry): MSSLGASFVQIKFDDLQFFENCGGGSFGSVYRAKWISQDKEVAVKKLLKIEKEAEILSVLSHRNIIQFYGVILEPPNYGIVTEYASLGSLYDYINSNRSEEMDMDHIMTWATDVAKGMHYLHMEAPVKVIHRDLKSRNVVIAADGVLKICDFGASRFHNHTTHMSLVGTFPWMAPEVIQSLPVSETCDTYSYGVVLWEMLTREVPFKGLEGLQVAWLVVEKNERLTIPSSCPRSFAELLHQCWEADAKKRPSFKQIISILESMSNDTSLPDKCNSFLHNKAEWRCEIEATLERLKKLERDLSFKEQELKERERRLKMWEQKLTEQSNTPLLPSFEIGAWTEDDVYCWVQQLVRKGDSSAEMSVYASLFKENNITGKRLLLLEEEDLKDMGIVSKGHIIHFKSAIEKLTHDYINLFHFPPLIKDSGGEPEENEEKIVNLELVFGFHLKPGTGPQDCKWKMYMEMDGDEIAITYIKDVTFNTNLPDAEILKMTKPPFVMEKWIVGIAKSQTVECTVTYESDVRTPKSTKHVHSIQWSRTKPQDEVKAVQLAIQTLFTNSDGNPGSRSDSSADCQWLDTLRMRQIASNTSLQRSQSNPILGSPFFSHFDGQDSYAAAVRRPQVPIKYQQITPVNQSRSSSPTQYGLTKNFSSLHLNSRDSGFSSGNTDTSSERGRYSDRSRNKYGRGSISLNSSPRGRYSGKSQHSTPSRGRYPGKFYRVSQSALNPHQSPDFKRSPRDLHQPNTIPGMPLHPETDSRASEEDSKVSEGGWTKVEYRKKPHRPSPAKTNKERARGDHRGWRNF

As to `c1ccc(-c2nn3c(c2-c2ccc4ncn(CCCN5CCCC5)c4c2)CCC3)nc1`, the IC50 was 246 nM at TGF-beta receptor type-1 [1]; 10800 nM at TGF-beta receptor type-2; 854 nM in assay [2]; 4880 nM in assay [3]; 226 nM at TGF-beta receptor type-1 [4].

As for `Cc1cccc(-c2nn3c(c2-c2ccc4c(c2)ncn4CCCOC2CCCCO2)CCC3)n1` (stereo not drawn), the IC50 at TGF-beta receptor type-1 [1] was 1830 nM; on TGF-beta receptor type-2 it was 14500 nM; in assay [3] it was above 20000 nM; against TGF-beta receptor type-1 [4] it was 2430 nM.

Take `CCN(CC)CCCn1cnc2ccc(-c3c(-c4cccc(C)n4)nn4c3CCC4)cc21`: the IC50 on TGF-beta receptor type-1 [1] is 122 nM; at TGF-beta receptor type-2 it was above 20000 nM; in assay [2] it was 274 nM; in assay [3], above 20000 nM; on TGF-beta receptor type-1 [4] it was 100 nM.

As to `Cc1cccc(-c2nn3c(c2-c2ccc4ncn(CCCN5CCOCC5)c4c2)CCC3)n1`, the IC50 at TGF-beta receptor type-1 [1] was 69 nM; at TGF-beta receptor type-2, 19800 nM; in assay [2] it was 277 nM; in assay [3], 8480 nM; against TGF-beta receptor type-1 [4], 186 nM.

For `Cn1cnc2cc(-c3c(-c4ccccn4)nn4c3CCC4)ccc21`, the IC50 at TGF-beta receptor type-1 [1] was 4740 nM; on TGF-beta receptor type-2 it was 19600 nM; in assay [2], 1620 nM; in assay [3] it was above 20000 nM; on TGF-beta receptor type-1 [4] it was 1370 nM.

For `Cc1cccc(-c2nn3c(c2-c2ccc4ncn(CCCN(C)C)c4c2)CCC3)n1`, the IC50 on TGF-beta receptor type-1 [1] is 85 nM; at TGF-beta receptor type-2, above 20000 nM; in assay [2], 139 nM; in assay [3], above 20000 nM; at TGF-beta receptor type-1 [4], 53 nM.

On to `Cc1cccc(-c2nn3c(c2-c2ccc4ncn(CCCN5CCCCC5)c4c2)CCC3)n1`, for which the IC50 is 155 nM on TGF-beta receptor type-1 [1]; above 20000 nM on TGF-beta receptor type-2; 150 nM in assay [2]; above 20000 nM in assay [3]; 51 nM against TGF-beta receptor type-1 [4].

On to `CN(C)CCCn1cnc2ccc(-c3c(-c4ccccn4)nn4c3CCC4)cc21`, for which the IC50 at TGF-beta receptor type-1 [1] is 398 nM; at TGF-beta receptor type-2, above 20000 nM; in assay [2], 1000 nM; in assay [3], 15900 nM; against TGF-beta receptor type-1 [4] it was 104 nM.

In the case of `OCCCn1cnc2ccc(-c3c(-c4ccccn4)nn4c3CCC4)cc21`, the IC50 at TGF-beta receptor type-1 [1] worked out at 79 nM; at TGF-beta receptor type-2, 352 nM; in assay [2], 371 nM; in assay [3], 708 nM; against TGF-beta receptor type-1 [4], 79 nM.

On to `Cc1cccc(-c2nn3c(c2-c2ccc4ncn(C)c4c2)CCC3)n1`, for which the IC50 at TGF-beta receptor type-1 [1] is 22 nM; at TGF-beta receptor type-2 it was 668 nM; in assay [2], 96 nM; in assay [3], 2340 nM; at TGF-beta receptor type-1 [4], 29 nM.

In the case of `Cn1ccc2cc(-c3c(-c4ccccn4)nn4c3CCC4)ccc21`, the figures for the IC50 (on TGF-beta receptor type-1 [1]; at TGF-beta receptor type-2; in assay [3]) were 12200 nM, above 20000 nM and 16600 nM, respectively.

For the compound `Cc1cccc(-c2nn3c(c2-c2ccc4c(ccn4C)c2)CCC3)n1`, the IC50 on TGF-beta receptor type-1 [1] was 4100 nM; on TGF-beta receptor type-2, above 20000 nM; in assay [3], above 20000 nM.

On to `Cc1cccc(-c2nn3c(c2-c2ccc4ncn(CCCO)c4c2)CCC3)n1`, for which the IC50 at TGF-beta receptor type-1 [1] is 41 nM; at TGF-beta receptor type-2, 690 nM; in assay [2], 371 nM; in assay [3], 2810 nM; on TGF-beta receptor type-1 [4], 78 nM.

Consider `c1ccc(-c2n[nH]cc2-c2ccnc3ccccc23)nc1`, for which the results for the IC50 (on TGF-beta receptor type-2; in assay [2]; in assay [3]) were 400 nM, 81 nM and 1400 nM, respectively.

For `Cc1cccc(-c2nn3c(c2-c2ccc4ncn(CCCN5CCCC5)c4c2)CCC3)n1`, the IC50 was 74 nM on TGF-beta receptor type-1 [1]; above 20000 nM at TGF-beta receptor type-2; 249 nM in assay [2]; above 20000 nM in assay [3]; 117 nM on TGF-beta receptor type-1 [4].

For the compound `c1ccc(-c2nn3c(c2-c2ccc4c(c2)ncn4CCCOC2CCCCO2)CCC3)nc1` (stereo not drawn), the IC50 on TGF-beta receptor type-1 [1] is 6580 nM; at TGF-beta receptor type-2, above 20000 nM; in assay [2] it was 4700 nM; in assay [3], above 20000 nM; at TGF-beta receptor type-1 [4] it was 5890 nM.

Turning to `c1ccc(-c2nn3c(c2-c2ccc4[nH]cnc4c2)CCC3)nc1`, the IC50 at TGF-beta receptor type-2 turned out to be 8730 nM.

As to `c1ccc(-c2nn3c(c2-c2ccc4[nH]ccc4c2)CCC3)nc1`, the IC50 (on TGF-beta receptor type-1 [1]; on TGF-beta receptor type-2; in assay [3]) was above 20000 nM each time.

Regarding `Cc1cccc(-c2nn3c(c2-c2ccc4nc[nH]c4c2)CCC3)n1`, the IC50 on TGF-beta receptor type-1 [1] came out at 47 nM; on TGF-beta receptor type-2, 1300 nM; in assay [2], 42 nM; in assay [3], 15900 nM; against TGF-beta receptor type-1 [4], 15 nM; on Cytochrome P450 2D6, 27000 nM.

As to `Cn1cnc2ccc(-c3c(-c4ccccn4)nn4c3CCC4)cc21`, the IC50 at TGF-beta receptor type-1 [1] was 75 nM; on TGF-beta receptor type-2, 395 nM; in assay [2], 32 nM; in assay [3], 1310 nM; against TGF-beta receptor type-1 [4], 8 nM.

Usually IC50 stands for the midpoint of a concentration-inhibition curve.

These data come from ChEMBL document CHEMBL1138200, “Dihydropyrrolopyrazole transforming growth factor-beta type I receptor kinase domain inhibitors: a novel benzimidazole series with selectivity versus transforming growth factor-beta type II receptor kinase and mixed lineage kinase-7” (J Med Chem, 2006).
